Where “and” joins values, the source holds several entries; their conditions need not be identical. Equal values may be shown once.
System: MDA-MB-231 complex spheroid viability
Test: Anticancer human tumor MDA-MB-231/ATCC cell line growth inhibition;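 note: drug exposure lasted 7 days starting on day 3 of spheroid growth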
Settings: for viability, T/C: stronger effect = lower value
In short: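 Multicellular complex spheroids of tumor cells with human endothelial cells (HUVEC) and mesenchymal stem cells; the LSD1 inhibitor iadademstat was combined with standard-of-care or investigational agents. Top concentration at or near clinical Cmax, half-log dilutions; final DMSO ≤0.25%.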

[1] = curve of first compound, second compound 0.1 µM
[2] = curve of first compound, second compound 0.316 µM
[3] = curve of first compound, second compound 1 µM
[4] = curve of first compound, second compound 3.16 µM
[5] = curve of first compound, second compound 10 µM

Q: Which results are given for `Nc1ccccc1NC(=O)c1ccc(CNC(=O)OCc2cccnc2)cc1` + NC1CCC(NC2CC2c2ccccc2)CC1?
A: IC50 [1]: 62.2 nM; IC50 [2]: 65.8 nM; IC50 [3]: 50.7 nM; IC50 [4]: 38.5 nM; IC50 [5]: 26.3 nM; viability, T/C (second compound 0.1 µM, first compound 0.00949 µM): 89.4%; viability, T/C (second compound 0.1 µM, first compound 0.03 µM): 61%; viability, T/C (second compound 0.1 µM, first compound 0.0949 µM): 39%; viability, T/C (second compound 0.1 µM, first compound 0.3 µM): 31.5%; viability, T/C (second compound 0.1 µM, first compound 0.949 µM): 15.9%; viability, T/C (second compound 0.1 µM, first compound 3 µM): 3.58%; viability, T/C (second compound 0.316 µM, first compound 0.00949 µM): 86.2%; viability, T/C (second compound 0.316 µM, first compound 0.03 µM): 64.6%; viability, T/C (second compound 0.316 µM, first compound 0.0949 µM): 39.6%; viability, T/C (second compound 0.316 µM, first compound 0.3 µM): 29.4%; viability, T/C (second compound 0.316 µM, first compound 0.949 µM): 16.3%; viability, T/C (second compound 0.316 µM, first compound 3 µM): 2.82%; viability, T/C (second compound 1 µM, first compound 0.00949 µM): 85%; viability, T/C (second compound 1 µM, first compound 0.03 µM): 58%; viability, T/C (second compound 1 µM, first compound 0.0949 µM): 37%; viability, T/C (second compound 1 µM, first compound 0.3 µM): 26.4%; viability, T/C (second compound 1 µM, first compound 0.949 µM): 14.3%; viability, T/C (second compound 1 µM, first compound 3 µM): 2.97%; viability, T/C (second compound 3.16 µM, first compound 0.00949 µM): 72.7%; viability, T/C (second compound 3.16 µM, first compound 0.03 µM): 54.1%; viability, T/C (second compound 3.16 µM, first compound 0.0949 µM): 35.7%; viability, T/C (second compound 3.16 µM, first compound 0.3 µM): 20.6%; viability, T/C (second compound 3.16 µM, first compound 0.949 µM): 10.1%; viability, T/C (second compound 3.16 µM, first compound 3 µM): 1.4%; viability, T/C (second compound 10 µM, first compound 0.00949 µM): 63.2%; viability, T/C (second compound 10 µM, first compound 0.03 µM): 47.7%; viability, T/C (second compound 10 µM, first compound 0.0949 µM): 32.2%; viability, T/C (second compound 10 µM, first compound 0.3 µM): 15.1%; viability, T/C (second compound 10 µM, first compound 0.949 µM): 7.15%; viability, T/C (second compound 10 µM, first compound 3 µM): 0.5%

Q: With `Nc1ncn(C2CC(O)C(CO)O2)c(=O)n1` (configuration not stated) as the compound, how does the viability, T/C (compound 0.00316 µM) read?
A: 99.5% and 83.9%

Q: And the viability, T/C (compound 0.01 µM)?
A: 95.3% and 91.9%

Q: And the viability, T/C (compound 0.0316 µM)?
A: 83.2% and 87.7%

Q: And the viability, T/C (compound 0.1 µM)?
A: 75.1% and 78.5%

Q: And the viability, T/C (compound 0.316 µM)?
A: 64.4% and 69.5%

Q: And the viability, T/C (compound 1 µM)?
A: 53.7% and 56.2%

Q: And the IC50 (curve of compound)?
A: > 1000 nM

Q: Which IC50 [1] does the source give for `Nc1ncn(C2CC(O)C(CO)O2)c(=O)n1` (configuration not stated) + NC1CCC(NC2CC2c2ccccc2)CC1 here?
A: > 1000 nM

Q: What about the IC50 [2] of the same compound?
A: > 1000 nM

Q: What about the IC50 [3] of the same compound?
A: > 1000 nM

Q: What about the IC50 [4] of the same compound?
A: > 1000 nM

Q: What about the IC50 [5] of the same compound?
A: 283 nM

Q: What about the viability, T/C (second compound 0.1 µM, first compound 0.00316 µM) of the same compound?
A: 94%

Q: What about the viability, T/C (second compound 0.1 µM, first compound 0.01 µM) of the same compound?
A: 94.1%

Q: And the viability, T/C (second compound 0.1 µM, first compound 0.0316 µM)?
A: 92.3%

Q: What about the viability, T/C (second compound 0.1 µM, first compound 0.1 µM) of the same compound?
A: 81.3%

Q: And the viability, T/C (second compound 0.1 µM, first compound 0.316 µM)?
A: 71.7%

Q: And the viability, T/C (second compound 0.1 µM, first compound 1 µM)?
A: 60.4%

Q: And the viability, T/C (second compound 0.316 µM, first compound 0.00316 µM)?
A: 98.2%

Q: What about the viability, T/C (second compound 0.316 µM, first compound 0.01 µM) of the same compound?
A: 96.7%

Q: And the viability, T/C (second compound 0.316 µM, first compound 0.0316 µM)?
A: 92.8%

Q: And the viability, T/C (second compound 0.316 µM, first compound 0.1 µM)?
A: 86.3%

Q: What about the viability, T/C (second compound 0.316 µM, first compound 0.316 µM) of the same compound?
A: 66.8%

Q: What about the viability, T/C (second compound 0.316 µM, first compound 1 µM) of the same compound?
A: 62.7%

Q: And the viability, T/C (second compound 1 µM, first compound 0.00316 µM)?
A: 96.9%

Q: And the viability, T/C (second compound 1 µM, first compound 0.01 µM)?
A: 94.5%

Q: And the viability, T/C (second compound 1 µM, first compound 0.0316 µM)?
A: 89.2%

Q: What about the viability, T/C (second compound 1 µM, first compound 0.1 µM) of the same compound?
A: 71.5%

Q: And the viability, T/C (second compound 1 µM, first compound 0.316 µM)?
A: 67.4%

Q: And the viability, T/C (second compound 1 µM, first compound 1 µM)?
A: 63.9%

Q: What about the viability, T/C (second compound 3.16 µM, first compound 0.00316 µM) of the same compound?
A: 86%

Q: What about the viability, T/C (second compound 3.16 µM, first compound 0.01 µM) of the same compound?
A: 84.1%

Q: And the viability, T/C (second compound 3.16 µM, first compound 0.0316 µM)?
A: 79.2%

Q: What about the viability, T/C (second compound 3.16 µM, first compound 0.1 µM) of the same compound?
A: 72.8%

Q: And the viability, T/C (second compound 3.16 µM, first compound 0.316 µM)?
A: 59%

Q: What about the viability, T/C (second compound 3.16 µM, first compound 1 µM) of the same compound?
A: 54.9%

Q: What about the viability, T/C (second compound 10 µM, first compound 0.00316 µM) of the same compound?
A: 67%

Q: What about the viability, T/C (second compound 10 µM, first compound 0.01 µM) of the same compound?
A: 65.5%

Q: And the viability, T/C (second compound 10 µM, first compound 0.0316 µM)?
A: 63%

Q: What about the viability, T/C (second compound 10 µM, first compound 0.1 µM) of the same compound?
A: 55.4%

Q: And the viability, T/C (second compound 10 µM, first compound 0.316 µM)?
A: 45.2%

Q: And the viability, T/C (second compound 10 µM, first compound 1 µM)?
A: 45.1%

From PubChem BioAssay AID1918953 (Molecular Pharmacology Branch, DTP, NCI, 2023)
